Assay results taken from patent US20150306154A1, “STRAINS AND METHODS USEFUL FOR MYCOTOXINS” (DuPont Nutrition Biosciences ApS, priority 2011, published 2015).
Where two headings read alike, the source gives them in different places.

What was measured:
IPEC-J2 cells = assay type: cell-based, porcine; conditions: relative to unstimulated IPEC-J2 cells
nursery pigs = conditions: 3 ppm DON in diet, 7 days

| Compound | IL-6 gene expression fold change (IPEC-J2 cells; DON 10 ng/mL) [fold] | IL-8 gene expression fold change (IPEC-J2 cells; DON 10 ng/mL) [fold] | TNF-α gene expression fold change (IPEC-J2 cells; LPS/DON) | ADFI (nursery pigs; Non-Responders) [kg] | ADG (nursery pigs; Non-Responders) [kg] | G:F (nursery pigs; Non-Responders) | ADFI (nursery pigs; Responders) [kg] | ADG (nursery pigs; Responders) [kg] | G:F (nursery pigs; Responders) | IL-6 gene expression fold change (IPEC-J2 cells; LPS 10 ng/mL) [fold] | IL-8 gene expression fold change (IPEC-J2 cells; LPS 10 ng/mL) [fold] | TNF-α gene expression fold change (IPEC-J2 cells; LPS 10 ng/mL) [fold] |
| --- | --- | --- | --- | --- | --- | --- | --- | --- | --- | --- | --- | --- |
| CC1=C[C@H]2O[C@@H]3[C@H](O)C[C@](C)([C@@]2(CO)[C@H](O)C1=O)[C@]31CO1 [DON, deoxynivalenol] | −0.86 | 0.56 | about 5 fold | 0.71 | 0.46 | 0.64 | 0.42 | 0.26 | 0.61 | – | – | – |
| lipopolysaccharide [LPS] | – | – | – | – | – | – | – | – | – | 0.29 | 0.88 | 0.16 |
